Data from publication PMC7200681, “The calcitonin-like system is an ancient regulatory system of biomineralization” (Scientific Reports, 2020).
Bridge positions count the residues as written; N and C are the ends.

What was measured:
[1] = tested on: mussel CALCR-like (CALCRIa, CALCRIc, CALCRIIa, CALCRIIb and CALCRIIc); experiment: Calcium mobilization, initial single-concentration test on the mussel receptors; type: cell-based; conditions: 10 µM peptide; % of carbachol (100uM) response; single experiment with six replicates (Supplementary Figure 7B)
Procedure: Mammalian cell cultures and transfections followed the methodology described by[89],[90]. Mammalian HEK293 cells (ECACC, UK) were used and they were maintained in complete Dulbecco’s modified Eagle’s medium (DMEM, 4.5 g/l glucose, 110 mg/l sodium pyruvate and L-glutamine, SIGMA-ALDRICH, Spain) supplemented with 10% sterile foetal bovine serum (FBS), 0.1% penicillin: streptomycin antibiotic mix (10,000 U:10 mg/ml, Sigma) and 250 μg /ml sterile filtered 1:100 amphotericin B solution (SIGMA-ALDRICH) in a humid 5% CO2 incubator (HERAEUS, Portugal) at 37 °C. […] Cell recovery was monitored daily and the medium was changed every two days until no cell death was observed. […]
(§1) HEK293 cells stably expressing five mussel receptors (CALCRIa, CALCRIc, CALCRIIa, CALCRIIb and CALCRIIc) were stimulated with the two mussel peptides and the vertebrate (human and salmon) calcitonins. Receptor activation was assessed in vitro by measuring two intracellular signalling pathways: a) production of cAMP and b) mobilization of calcium (Ca^2+). The cellular response was initially assessed using 10 μM of each peptide. […]
Stable cell lines expressing the mussel receptors were transiently co-transfected with the mitochondrial targeted apo-aequorin protein cloned in pcDNA3.1. […] Peptide potency was determined as the total area under the activation curve. Data was calculated as a % of the highest response (100% activation). […]

[2] = tested on: mussel CALCRIa; experiment: Calcium mobilization assay (apoaequorin bioluminescence), dose-response, HEK 293 cells expressing mussel CALCRIa; type: cell-based, Mytilus galloprovincialis; conditions: calcium mobilization, HEK 293/apoaequorin, 1 μM to 0.01 nM
From the text: The complete sequence of the Mediterranean mussel CALCRIa was amplified using specific primers (Table 1) from cDNA of a tissue mixture (mantle, adductor muscle, gills, gonads) using a proofreading DNA polymerase (iProof BIORAD, Portugal) and cloned into the pGEMT-easy vector (PROMEGA, Spain). The Mediterranean mussel CALCRIIa transcript that was found in the mantle transcriptome was incomplete and lacked the N-terminus (by comparisons with the hard-shelled mussel homologue) and so the remaining sequence (from 1–393 bp) was deduced from the hard-shelled mussel homologue receptor and the receptor was synthesised and supplied by GENESCRIPT (USA). The complete transcripts for mussel CALCRIc, CALCRIIb and CALCRIIc were only found in the hard-shelled mussel mantle transcriptome and homologues were only found in the Mediterranean mussel genome as they were absent from the species mantle transcriptome and so they were also synthesised and supplied by GENESCRIPT (USA) using the hard-shelled mussel receptor sequences as template. The mussel CALCRIb transcript was incomplete and lacked both N and C-terminal regions and it was not possible to obtain the complete transcript either by searching both mussels mantle transcriptomes or the Mediterranean mussel genome and so it was not produced. All synthetized receptors were provided in the pUC57 cloning vector by the company and receptor codon usage was optimized to favour a high level of expression in mammalian cells.
Mammalian cell cultures and transfections followed the methodology described by[89],[90]. Mammalian HEK293 cells (ECACC, UK) were used and they were maintained in complete Dulbecco’s modified Eagle’s medium (DMEM, 4.5 g/l glucose, 110 mg/l sodium pyruvate and L-glutamine, SIGMA-ALDRICH, Spain) supplemented with 10% sterile foetal bovine serum (FBS), 0.1% penicillin: streptomycin antibiotic mix (10,000 U:10 mg/ml, Sigma) and 250 μg /ml sterile filtered 1:100 amphotericin B solution (SIGMA-ALDRICH) in a humid 5% CO2 incubator (HERAEUS, Portugal) at 37 °C. On the day prior to transfection, 2–3 × 10^5 HEK293 cells were seeded on 6 well plates (SARSTEDT, Portugal) and transfected with Fugene HD transfection reagent (2 DNA: 4 Fugene ratio, PROMEGA) following the manufacturer’s protocol. Seventy-two hours after transfection, 800 μg/ml of the antibiotic Geneticin (SIGMA-ALDRICH) was added to the medium to select and isolate stable receptor cell lines. Cell recovery was monitored daily and the medium was changed every two days until no cell death was observed. […]
as §1
Stable cell lines expressing the mussel receptors were transiently co-transfected with the mitochondrial targeted apo-aequorin protein cloned in pcDNA3.1. Two days after transfection cells were washed, counted and resuspended in 1 ml of DMEM /F12 Ham (without phenol red)/0.1% BSA supplemented with 2 µM coelenterazine (SIGMA-ALDRICH). […] The injector system of the Biotek Synergy 4 microplate reader (USA) was used to inject 50 µl of the cell suspensions into wells containing 50 μl of the diluted peptide in DMEM / F12 Ham / 0.1% BSA. […]

H-CTWGGGMSDEMCSTVDIDEIQRSFQVIHDRNSP-NH2 (disulfide 1-12 (inferred)) [CALCIIa, Mediterranean mussel calcitonin-like mature peptide, 33 aa, synthesized with disulphide bond and C-terminal amidation]
Stimulation of mussel CALCR-like, intracellular calcium (in words) [1]: elicited a high response
Activation of mussel CALCRIa in dose-response analysis (in words) [2]: not activated
